Experimental data as given in ChEMBL document CHEMBL3885861, “Open TG-GATES”.

Species: Rattus norvegicus
Assay: Open TG-GATES - Regimen: Daily Repeat
Type: toxicity, organism-based, Sprague-Dawley
Design: regimen Daily Repeat, gender Male, age 6 weeks
Settings: in vivo, po, 5 mg/kg, route gavage, dose level Low; for APTT / Bas / Eos / Fbg / Hb / Ht / Lym / MCH / MCHC / MCV / Mono / Neu / PT / Plat / RBC / Ret / WBC: tissue Blood; for KIDNEY_L / KIDNEY_R / KIDNEY_TOTAL: tissue Kidney; for LIVER: tissue Liver; for A/G / ALP / ALT / AST / BUN / CRE / Ca / Cl / DBIL / GLC / IP / K / LDH / Na / PL / RALB / TBIL / TC / TG / TP / gamma-GTP: tissue Plasma

`CC(=N)S` [THIOACETAMIDE] gave a TERMINAL_BW (72 h, time 3 day) of 228.6 g, an APTT (72 h, time 3 day) of 16.9 s and a Bas (72 h, time 3 day) of 0%. The Eos (72 h, time 3 day) was 1%, the Fbg (72 h, time 3 day) was 234 mg/dL and the Hb (72 h, time 3 day) was 13.6 g/dL. For the same compound, the Ht (72 h, time 3 day) was 41.4%, the Lym (72 h, time 3 day) was 78.8% and the MCH (72 h, time 3 day) was 21 pg. It also gave an MCHC (72 h, time 3 day) of 32.9%, an MCV (72 h, time 3 day) of 63.8 fL and a Mono (72 h, time 3 day) of 8.2%. The Neu (72 h, time 3 day) was 12.2%, the PT (72 h, time 3 day) was 11.6 s and the Plat (72 h, time 3 day) was 111 x10_4/uL. For the same compound, the RBC (72 h, time 3 day) was 649.4 x10_4/ul, the Ret (72 h, time 3 day) was 6.6% and the WBC (72 h, time 3 day) was 139.8 x10_2/uL. For the same compound, the KIDNEY_L (72 h, time 3 day) was 1 g, the KIDNEY_R (72 h, time 3 day) was 1.1 g and the KIDNEY_TOTAL (72 h, time 3 day) was 2.1 g. For the same compound, the LIVER (72 h, time 3 day) was 11.7 g, the A/G (72 h, time 3 day) was 2.1 and the ALP (72 h, time 3 day) was 900 IU/L. For the same compound, the ALT (72 h, time 3 day) was 28 IU/L, the AST (72 h, time 3 day) was 58.8 IU/L and the BUN (72 h, time 3 day) was 16.2 mg/dL. It also gave a CRE (72 h, time 3 day) of 0.5 mg/dL, a Ca (72 h, time 3 day) of 10.7 mg/dL and a Cl (72 h, time 3 day) of 104.8 meq/L. For the same compound, the DBIL (72 h, time 3 day) was 0.004 mg/dL, the GLC (72 h, time 3 day) was 192.6 mg/dL and the IP (72 h, time 3 day) was 7.8 mg/dL. The K (72 h, time 3 day) was 4.7 meq/L, the LDH (72 h, time 3 day) was 95.2 IU/L and the Na (72 h, time 3 day) was 137 meq/L. For the same compound, the PL (72 h, time 3 day) was 159.8 mg/dL, the RALB (72 h, time 3 day) was 4 g/dL and the TBIL (72 h, time 3 day) was 0.3 mg/dL. The TC (72 h, time 3 day) was 83.2 mg/dL, the TG (72 h, time 3 day) was 123.2 mg/dL and the TP (72 h, time 3 day) was 5.9 g/dL. The gamma-GTP (72 h, time 3 day) was 2 IU/L, the TERMINAL_BW ([…], time 7 day) was 252.6 g and the TERMINAL_BW ([…], time 14 day) was 308.5 g. For the same compound, the TERMINAL_BW ([…], time 28 day) was 375.1 g, the APTT ([…], time 7 day) was 16.4 s and the Bas ([…], time 7 day) was 0%. It also gave an Eos ([…], time 7 day) of 1%, a Fbg ([…], time 7 day) of 229.2 mg/dL and a Hb ([…], time 7 day) of 13.8 g/dL. For the same compound, the Ht ([…], time 7 day) was 41.5%, the Lym ([…], time 7 day) was 82% and the MCH ([…], time 7 day) was 20.9 pg. It also gave an MCHC ([…], time 7 day) of 33.3%, an MCV ([…], time 7 day) of 62.9 fL and a Mono ([…], time 7 day) of 6.6%. It also gave a Neu ([…], time 7 day) of 10.2%, a PT ([…], time 7 day) of 12.1 s and a Plat ([…], time 7 day) of 111.2 x10_4/uL. The RBC ([…], time 7 day) was 660.4 x10_4/ul, the Ret ([…], time 7 day) was 5.3% and the WBC ([…], time 7 day) was 155.6 x10_2/uL. For the same compound, the APTT ([…], time 14 day) was 17.1 s, the Bas ([…], time 14 day) was 0% and the Eos ([…], time 14 day) was 0.8%. It also gave a Fbg ([…], time 14 day) of 231.8 mg/dL, a Hb ([…], time 14 day) of 14.6 g/dL and a Ht ([…], time 14 day) of 44.1%. It also gave a Lym ([…], time 14 day) of 83.6%, an MCH ([…], time 14 day) of 19.8 pg and an MCHC ([…], time 14 day) of 33.1%. It also gave an MCV ([…], time 14 day) of 59.9 fL, a Mono ([…], time 14 day) of 6% and a Neu ([…], time 14 day) of 10%. It also gave a PT ([…], time 14 day) of 12.3 s, a Plat ([…], time 14 day) of 102 x10_4/uL and an RBC ([…], time 14 day) of 736.2 x10_4/ul. It also gave a Ret ([…], time 14 day) of 3.9%, a WBC ([…], time 14 day) of 165.2 x10_2/uL and an APTT ([…], time 28 day) of 17 s. The Bas ([…], time 28 day) was 0%, the Eos ([…], time 28 day) was 0.8% and the Fbg ([…], time 28 day) was 242.4 mg/dL. The Hb ([…], time 28 day) was 15 g/dL, the Ht ([…], time 28 day) was 44.9% and the Lym ([…], time 28 day) was 85.2%. The MCH ([…], time 28 day) was 19.6 pg, the MCHC ([…], time 28 day) was 33.5% and the MCV ([…], time 28 day) was 58.5 fL. It also gave a Mono ([…], time 28 day) of 3.6%, a Neu ([…], time 28 day) of 10.4% and a PT ([…], time 28 day) of 11.1 s. For the same compound, the Plat ([…], time 28 day) was 111.7 x10_4/uL, the RBC ([…], time 28 day) was 767.8 x10_4/ul and the Ret ([…], time 28 day) was 3%. For the same compound, the WBC ([…], time 28 day) was 184.6 x10_2/uL, the KIDNEY_L ([…], time 7 day) was 1 g and the KIDNEY_R ([…], time 7 day) was 1.1 g. It also gave a KIDNEY_TOTAL ([…], time 7 day) of 2.1 g, a KIDNEY_L ([…], time 14 day) of 1.2 g and a KIDNEY_R ([…], time 14 day) of 1.2 g. The KIDNEY_TOTAL ([…], time 14 day) was 2.4 g, the KIDNEY_L ([…], time 28 day) was 1.3 g and the KIDNEY_R ([…], time 28 day) was 1.4 g. The KIDNEY_TOTAL ([…], time 28 day) was 2.7 g, the LIVER ([…], time 7 day) was 12.3 g and the LIVER ([…], time 14 day) was 13.6 g. The LIVER ([…], time 28 day) was 16.5 g, the A/G ([…], time 7 day) was 1.9 and the ALP ([…], time 7 day) was 742.6 IU/L. It also gave an ALT ([…], time 7 day) of 31.8 IU/L, an AST ([…], time 7 day) of 56 IU/L and a BUN ([…], time 7 day) of 18 mg/dL. For the same compound, the CRE ([…], time 7 day) was 0.5 mg/dL, the Ca ([…], time 7 day) was 10.5 mg/dL and the Cl ([…], time 7 day) was 105 meq/L. The DBIL ([…], time 7 day) was 0.008 mg/dL, the GLC ([…], time 7 day) was 186.6 mg/dL and the IP ([…], time 7 day) was 7.6 mg/dL. It also gave a K ([…], time 7 day) of 5.1 meq/L, an LDH ([…], time 7 day) of 84.8 IU/L and a Na ([…], time 7 day) of 135.2 meq/L. For the same compound, the PL ([…], time 7 day) was 160 mg/dL, the RALB ([…], time 7 day) was 3.9 g/dL and the TBIL ([…], time 7 day) was 0.3 mg/dL. The TC ([…], time 7 day) was 76.4 mg/dL, the TG ([…], time 7 day) was 167.4 mg/dL and the TP ([…], time 7 day) was 6 g/dL. The gamma-GTP ([…], time 7 day) was 1.4 IU/L, the A/G ([…], time 14 day) was 2 and the ALP ([…], time 14 day) was 870.6 IU/L. For the same compound, the ALT ([…], time 14 day) was 29.8 IU/L, the AST ([…], time 14 day) was 62 IU/L and the BUN ([…], time 14 day) was 18.2 mg/dL. It also gave a CRE ([…], time 14 day) of 0.6 mg/dL, a Ca ([…], time 14 day) of 10.2 mg/dL and a Cl ([…], time 14 day) of 104.6 meq/L. The DBIL ([…], time 14 day) was 0.006 mg/dL, the GLC ([…], time 14 day) was 185.4 mg/dL and the IP ([…], time 14 day) was 6.8 mg/dL. It also gave a K ([…], time 14 day) of 5 meq/L, an LDH ([…], time 14 day) of 78.6 IU/L and a Na ([…], time 14 day) of 134.2 meq/L. It also gave a PL ([…], time 14 day) of 135.8 mg/dL, an RALB ([…], time 14 day) of 4.1 g/dL and a TBIL ([…], time 14 day) of 0.4 mg/dL. For the same compound, the TC ([…], time 14 day) was 61.6 mg/dL, the TG ([…], time 14 day) was 156.8 mg/dL and the TP ([…], time 14 day) was 6.2 g/dL. It also gave a gamma-GTP ([…], time 14 day) of 2 IU/L, an A/G ([…], time 28 day) of 1.6 and an ALP ([…], time 28 day) of 613.4 IU/L. It also gave an ALT ([…], time 28 day) of 25.8 IU/L, an AST ([…], time 28 day) of 54.6 IU/L and a BUN ([…], time 28 day) of 21.6 mg/dL. It also gave a CRE ([…], time 28 day) of 0.6 mg/dL, a Ca ([…], time 28 day) of 10.2 mg/dL and a Cl ([…], time 28 day) of 103 meq/L. The DBIL ([…], time 28 day) was 0 mg/dL, the GLC ([…], time 28 day) was 164 mg/dL and the IP ([…], time 28 day) was 6.9 mg/dL. It also gave a K ([…], time 28 day) of 4.6 meq/L, an LDH ([…], time 28 day) of 90.2 IU/L and a Na ([…], time 28 day) of 135.2 meq/L. It also gave a PL ([…], time 28 day) of 135.6 mg/dL, an RALB ([…], time 28 day) of 3.9 g/dL and a TBIL ([…], time 28 day) of 0.3 mg/dL. The TC ([…], time 28 day) was 60.8 mg/dL, the TG ([…], time 28 day) was 131.8 mg/dL and the TP ([…], time 28 day) was 6.4 g/dL. For the same compound, the gamma-GTP ([…], time 28 day) was 1.6 IU/L.
